Laboratory results as given in USRE38963E1, “Pyrazoline derivatives, their preparation and application as medicaments” (Laboratorios del Dr. Esteve, priority 1998, dated 2006).
Read-outs that look alike come from different tables or passages of the source.

Experiments:
gastric ulcers in rats = assay: Gastrointestinal effects: induction of ulcers in rats submitted to cold stress; type: in vivo; settings: rat, po; for Maximum non-Ulcerogenic dose: linear regression of dose-response
Method: Gastrointestinal Effects (GI): Induction of Ulcers in Rats Submitted to Cold Stress
In this assay possible ulcerogenic effects at a gastrointestinal level were determined after oral administration. […] Firstly the rats received the products under study orally at different doses. After two hours had elapsed the rats were placed in a chest freezer at −15° C. for 1 hour. Afterwards they were left for 1 hour at room temperature The animals were then sacrificed and the stomach extracted. The stomach was kept in saline solution for 15 minutes After this time the percentage of surface area with gastric ulcers was determined using a Project C.S.V. vs 1.2 image analyser for each stomach.

[1] = test system: COX-2/COX-1 (PGE2 in inflammatory exudate); assay: Inhibition of the synthesis of prostaglandins (PGE2) in inflammatory exudate in rat, carrageenan sponge; type: in vivo; settings: for inhibition at 40 mg/kg: read-out: Inhibition of PGE2, Inflammatory exudate; for ED50: read-out: ED-50, Inhibition of PGE2, Inflammatory exudate
Method: (§1) Inhibition of the Synthesis of Prostaglandins in Inflammatory Exudate and Mucus Membrane in Rat
(§2) The products under study are administered orally at an initial screening dose of 40 mg/kg One hour after treatment the rats were anaesthetised and a sponge soaked in carrageenan was implanted subcutaneously in the interscapular zone. Six hours after implantation the rats were sacrificed and the interscapular sponges extracted as well as gastric mucuous. Next the PGE2 content was determined by immunoassay for each one of the samples, in the sponge exudate on the one hand and in the gastric mucus on the other.

[2] = test system: COX-1 (PGE2 in gastric mucus); assay: Inhibition of the synthesis of prostaglandins (PGE2) in gastric mucus in rat; type: in vivo; settings: for inhibition at 40 mg/kg: read-out: Inhibition of PGE2, Gastric mucus; for ED50: read-out: ED-50, Inhibition of PGE2, Gastric mucus
Method: as §1, §2

[3] = test system: carrageenan pre-inflamed rat paw; assay: Analgesic activity against hyperalgesia by thermal stimulus of pre-inflamed rat paw; type: in vivo; settings: for % Activity, analgesic activity against hyperalgesia by thermal stimulus: dose 40 mg/kg po, 2 h after treatment; for ED50: po, read-out: ED-50 of analgesic activity against hyperalgesia by thermal stimulus
Method: Analgesic Activity Against “Hyperalgesia” by Thermal Stimulus of Pre-inflamed Rat Paw
In this assay the analgesic activity in rat was monitored following the method described by K. Hargreaves et al. (Pain, 1988, 32, 77-78). Firstly, a suspension of carrageenan was injected into the back right paw of each rat. After two hours the products under study were administered orally at a screening dose of 40 mg/kg. Two hours after treatment a heat source was applied to the sole of each back paw of the rats and the time measured that they took to remove the paw measured. Hyperalgesia was determined by comparing the percentage of algesia of the paw injected with carrageenan to the other back paw. The analgesic activity was calculated comparing these hyperalgesia values of the groups treated with product with those of the group treated with the vehicle only.

[4] = test system: secondary inflammation of paw (experimental arthritis); assay: Anti-arthritic activity in rat (Freund adjuvant); type: in vivo; settings: 10 mg/kg/day po for 11 days
Method: Anti-arthritic Activity in Rat
In this study the anti-arthritic activity in rat of the compound of example 3 has been studied. To do so the method described by B. J. Jaffee et al. (Agents and Actions, 1989, 27, 344-346) was followed. Firstly, the Freund adjuvant was injected (Mycobacterium butiricum suspended in soy-bean oil) through the sub-sole of the back left paw of the rats. After 14 days, when the secondary inflammation had developed in the uninjected paw, which is considered the experimental arthritis, treatment with the product under study or with the vehicle for the control group was started. The compound of example 3 was administered orally at a dose of 10 mg/kg/day for 11 days. The volume of the paw with secondary inflammation in the last days of treatment was measured. The anti-arthritic activity was calculated by comparing the average volume of the paw with secondary inflammation of the group treated with the compound of example 3 and the control group for 5 days.

Structure (SMILES): O=C(O)Cc1ccccc1Nc1c(Cl)cccc1Cl [Dichlophenac]
- Ulcerogenic effects (in words) (gastric ulcers in rats; cold stress): exhibited ulcerogenic effects at very low doses
- Maximum non-Ulcerogenic dose (gastric ulcers in rats; cold stress): 1.2 mg/kg

Structure (SMILES): Cc1ccc(C2CC(C(F)(F)F)=NN2c2ccc(S(N)(=O)=O)cc2)cc1 (centres unmarked) [Example 1, 1-(4-Aminosulphonylphenyl)-4,5-dihydro-5-(4-metylphenyl)-3-trifluoromethyl-1H-pyrazole]
- melting point: 140 to 143 °C

Structure (SMILES): CC1(c2ccccc2)CC(C(F)(F)F)=NN1c1ccc(S(N)(=O)=O)cc1 (centres unmarked) [Example 2, 1-(4-Aminosulphonylphenyl)-4,5-dihydro-5-phenyl-5-methyl-3-trifluoromethyl-1H-pyrazole]
- melting point: 60 to 66 °C

Structure (SMILES): NS(=O)(=O)c1ccc(N2N=C(C(F)(F)F)CC2c2ccc(F)cc2F)cc1 (centres unmarked) [Example 3, 1-(4-aminosulphonylphenyl)-5-(2,4-difluorophenyl)-4,5-dihydro-3-trifluoro methyl-1H-pyrazole]
- inhibition at 40 mg/kg ([1]; rat, dose 40 mg/kg po): 92%
- ED50 ([1]; rat, po): 36 mg/kg
- inhibition at 40 mg/kg ([2]; rat, dose 40 mg/kg po): 0%
- ED50 ([2]; rat, po): > 40 mg/kg
- % Activity, analgesic activity against hyperalgesia by thermal stimulus [3]: 100%
- ED50 [3]: 0.2 mg/kg
- Ulcerogenic effects (in words) (gastric ulcers in rats; in vivo): not to have ulcerogenic effects, even at very high doses
- Maximum non-Ulcerogenic dose (gastric ulcers in rats; cold stress): >80 mg/kg
- Inhibition of secondary inflammation (anti-arthritic activity) [4]: 71%

Structure (SMILES): COC(=O)C1=NN(c2ccc(S(C)(=O)=O)cc2)C(c2ccc(C)cc2)C1 (centres unmarked) [Example 5, methyl 4,5-dihydro-5-(4-methylphenyl)-1-(4-methylsulphonylphenyl)-1H-pyrazole-3-carboxylate]
- melting point: 156 to 157 °C

Structure (SMILES): Cc1ccc(C2CC(C(N)=O)=NN2c2ccc(S(N)(=O)=O)cc2)cc1 (centres unmarked) [Example 6, 1-(4-aminosulphonylphenyl)-4,5-dihydro-5-(4-methylphenyl)-1H-pyrazole-3-carboxamide]
- melting point: 137 to 140 °C

Structure (SMILES): Cc1ccc(C2CC(C#N)=NN2c2ccc(S(C)(=O)=O)cc2)cc1 (centres unmarked) [Example 7, 3-cyano-4,5-dihydro-5-(4-methylphenyl)-1-(4-methylsulphonylphenyl)-1H-pyrazole]
- melting point: 115 to 119 °C

Structure (SMILES): CC(=O)NS(=O)(=O)c1ccc(N2N=C(C(F)(F)F)CC2c2ccc(F)cc2F)cc1 (centres unmarked) [Example 8, 1-(4-acetylaminosulphonylphenyl)-5-(2,4-difluorophenyl)-4,5-dihydro-3-trifluoromethyl-1H-pyrazole]
- melting point: 154 to 156 °C

Structure (SMILES): Cc1ccc(C2CC(C(=O)O)=NN2c2ccc(S(N)(=O)=O)cc2)cc1 (centres unmarked) [Example 34, 1-(4-aminosulphonylphenyl)-4,5-dihydro-5-(4-methylphenyl)-1H-pyrazole-3-carboxylic acid]
- melting point: 172 to 176 °C

Structure (SMILES): COC(=O)C1=NN(c2ccc(S(C)(=O)=O)cc2)C(c2ccc(C)cc2)C1 (centres unmarked) [Example 39, methyl 4,5-dihydro-5-(4-methylphenyl)-1-(4-methylsulphonylphenyl)-1H-pyrazole-3-carboxylate]
- melting point: 155 to 160 °C

Structure (SMILES): Cc1ccc(C2CC(C(N)=O)=NN2c2ccc(S(N)(=O)=O)cc2)cc1 (centres unmarked) [Example 41, 1-(4-aminosulphonylphenyl)-4,5-dihydro-5-(4-methylphenyl)-1H-pyrazole-3-carboxamide]
- melting point: 210 to 215 °C

Structure (SMILES): Cc1ccc(C2CC(C(N)=O)=NN2c2ccc(S(C)(=O)=O)cc2)cc1 (centres unmarked) [Example 42, 4,5-dihydro-5-(4-methylphenyl)-1-(4-methylsulphonylphenyl)-1H-pyrazole-3-carboxamide]
- melting point: 128 to 132 °C

Structure (SMILES): Cc1ccc(C2CC(C#N)=NN2c2ccc(S(C)(=O)=O)cc2)cc1 (centres unmarked) [Example 43, 3-cyano-4,5-dihydro-5-(4-methylphenyl)-1-(4-methylsulphonylphenyl)-1H-pyrazole]
- melting point: 162 to 164 °C

Structure (SMILES): CC(=O)NS(=O)(=O)c1ccc(N2N=C(C(F)(F)F)CC2c2ccc(F)cc2F)cc1 (centres unmarked) [Example 64, 1-(4-acetylaminosulphonylphenyl)-5-(2,4-difluorophenyl)-4,5-dihydro-3-trifluoromethyl-1H-pyrazole]
- melting point: 172 to 174 °C

Structure (SMILES): Cc1cnc(NC(=O)C2=C(O)c3ccccc3S(=O)(=O)N2C)s1 [Meloxicam]
- inhibition at 40 mg/kg ([1]; Rattus norvegicus, po): 97%
- inhibition at 40 mg/kg ([2]; Rattus norvegicus, po): 65%

Structure (SMILES): COc1ccc2cc(CCC(C)=O)ccc2c1 [Nabumetone]
- inhibition at 40 mg/kg ([1]; rat, dose 40 mg/kg po): 93%
- ED50 ([1]; rat, po): 110 mg/kg
- inhibition at 40 mg/kg ([2]; rat, dose 40 mg/kg po): 0%
- ED50 ([2]; rat, po): > 40 mg/kg
- % Activity, analgesic activity against hyperalgesia by thermal stimulus [3]: 95%
- ED50 [3]: 2.1 mg/kg

Structure (SMILES): CS(=O)(=O)Nc1ccc([N+](=O)[O-])cc1Oc1ccccc1 [Nimesulide]
- % Activity, analgesic activity against hyperalgesia by thermal stimulus [3]: 97%
- ED50 [3]: 1 mg/kg

Structure (SMILES): CN1C(C(=O)Nc2ccccn2)=C(O)c2ccccc2S1(=O)=O [Piroxicam]
- Ulcerogenic effects (in words) (gastric ulcers in rats; in vivo): exhibited ulcerogenic effects at very low doses
- Maximum non-Ulcerogenic dose (gastric ulcers in rats; cold stress): 1.7 mg/kg
